Measurements reported in patent publication US20090017042A1, “PROCESS FOR THE DETERMINATION OF THE PRIMARY STRUCTURE OF THE MESSENGER RNA CODING FOR THE HUMAN RECOMBINANT ENDOOLIGOPEPTIDASE A (HEOPA) [AF217798]” (priority 2002, published 2009).
Where “and” joins values, the source holds several entries; their conditions need not be identical. Equal entries are not always repeated.

Assays:
[1] = biological target: T1, rEOPA (recombinant endooligopeptidase A) (Homo sapiens, UniProt Q9GZM8); details: state of the art; cited from earlier work
T1 construct: poly-histidine tag or anchor protein (e.g. GST) (N, cleaved yes); made in house; host or cells: Escherichia coli (DH5alpha, BL21(DE3) or similar), vector e.g. pProEx-HTc
T1 sequence (Q9GZM8 1-345): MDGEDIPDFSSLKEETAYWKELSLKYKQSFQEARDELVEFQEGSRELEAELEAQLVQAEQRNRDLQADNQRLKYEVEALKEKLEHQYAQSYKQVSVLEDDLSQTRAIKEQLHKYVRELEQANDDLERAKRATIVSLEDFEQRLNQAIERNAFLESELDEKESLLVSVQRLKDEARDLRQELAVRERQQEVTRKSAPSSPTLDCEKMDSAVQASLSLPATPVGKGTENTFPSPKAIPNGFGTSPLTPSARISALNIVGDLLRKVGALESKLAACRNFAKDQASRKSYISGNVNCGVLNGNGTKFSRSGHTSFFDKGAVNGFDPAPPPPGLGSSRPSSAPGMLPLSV

neurolysin (NL) = neurolysin (NL) (Homo sapiens, UniProt Q9BYT8); test: Inhibition of neurolysin; format: biochemical
Sequence of neurolysin (NL) (Q9BYT8 38-704): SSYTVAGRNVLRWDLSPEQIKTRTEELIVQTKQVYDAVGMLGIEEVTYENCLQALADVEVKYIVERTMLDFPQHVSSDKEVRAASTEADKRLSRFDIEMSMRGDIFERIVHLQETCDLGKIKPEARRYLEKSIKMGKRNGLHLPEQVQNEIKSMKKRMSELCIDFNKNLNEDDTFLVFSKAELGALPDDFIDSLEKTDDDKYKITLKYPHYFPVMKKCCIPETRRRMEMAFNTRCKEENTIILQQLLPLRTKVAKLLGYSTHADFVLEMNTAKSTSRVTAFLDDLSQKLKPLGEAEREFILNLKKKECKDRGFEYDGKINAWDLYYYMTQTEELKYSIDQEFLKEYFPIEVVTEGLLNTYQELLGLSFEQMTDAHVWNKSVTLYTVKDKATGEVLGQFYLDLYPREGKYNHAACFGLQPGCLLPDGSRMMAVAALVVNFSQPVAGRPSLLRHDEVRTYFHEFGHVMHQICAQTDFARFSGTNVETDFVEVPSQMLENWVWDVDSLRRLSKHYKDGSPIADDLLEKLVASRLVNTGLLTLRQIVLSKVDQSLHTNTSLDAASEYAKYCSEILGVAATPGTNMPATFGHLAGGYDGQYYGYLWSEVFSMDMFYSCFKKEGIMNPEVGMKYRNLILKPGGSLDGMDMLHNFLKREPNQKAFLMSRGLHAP

[2] = biological target: thimet oligopeptidase (TOP) (Homo sapiens, UniProt P52888); details: cited from earlier work
Sequence of thimet oligopeptidase (TOP) (P52888 whole entry, species assumed): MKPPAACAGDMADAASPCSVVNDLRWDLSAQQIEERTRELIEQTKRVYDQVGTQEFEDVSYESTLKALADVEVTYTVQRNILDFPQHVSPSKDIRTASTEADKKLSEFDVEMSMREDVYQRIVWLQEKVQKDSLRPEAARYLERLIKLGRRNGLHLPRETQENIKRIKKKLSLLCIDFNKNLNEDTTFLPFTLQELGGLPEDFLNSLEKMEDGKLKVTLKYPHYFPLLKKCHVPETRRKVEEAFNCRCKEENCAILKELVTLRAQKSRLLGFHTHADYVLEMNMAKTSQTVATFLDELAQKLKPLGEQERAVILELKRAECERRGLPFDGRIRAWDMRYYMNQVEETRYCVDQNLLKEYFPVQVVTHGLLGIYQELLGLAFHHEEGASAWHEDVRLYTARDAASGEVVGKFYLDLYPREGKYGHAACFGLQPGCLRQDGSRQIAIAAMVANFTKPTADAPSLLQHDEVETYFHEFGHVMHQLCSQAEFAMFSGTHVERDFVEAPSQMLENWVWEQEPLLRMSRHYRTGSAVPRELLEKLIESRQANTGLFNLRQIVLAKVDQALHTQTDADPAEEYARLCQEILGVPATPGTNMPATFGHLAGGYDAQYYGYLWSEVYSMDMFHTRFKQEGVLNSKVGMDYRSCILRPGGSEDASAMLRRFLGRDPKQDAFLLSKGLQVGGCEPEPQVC

[3] = biological target: T1, rEOPA (recombinant endooligopeptidase A); test: Inhibition of the catalytic activity of recombinant EOPA (kinetic assay, quenched fluorescence peptide substrate or HPLC); format: biochemical; details: for Ki: rEOPA
Description: Polyclonal antibodies were generated in rats, mice and rabbits, using the purified natural EOPA or the active recombinant EOPA, expressed in bacteria, specifically in Escherichia coli, for the immunization. Male Balb-C mice, 7 to 8 weeks old, and weighing between 18 and 22 g were immunized with purified natural human EOPA, or catalytically active recombinant enzyme. For each of the four immunizations, 2.mμ.g of the purified protein or 3.mμ.g of the recombinant protein, absorbed on aluminum hydroxide [Al(OH)3] were injected intradermically, in weekly intervals. Blood samples were collected one week after the last immunization, and the serum was stored at −20° C. The antiserum titer was evaluated by ELISA, using the appropriate antigen. The anti-catalytic activity of the obtained antiserum was evaluated by HPLC or fluorimetrically, using the quenched fluorescent peptides substrates. Before use, the antiserum was pre-heated at 55° C., for 5 minutes, in order to eliminate any contaminating peptidase activity. […] Using this antibody, it was possible to discriminate the activity of the EOPA from functionally similar, but not homologous enzymes, such as the TOP and the NL, which are also present in animal tissues and cells lineages.
Kinetic assays using natural peptide substrates like bradykinin, neurotensin and opioid peptides, composed by 9 to 13 amino acid residues, were essential for the discovery and characterization of the EOPA in our laboratory (see the summary of this literature in Camargo et al., 1994). Since 1990, we have developed peptide substrates derived from natural substrates with quenched fluorescence, standardizing the characterization of this enzyme, simplifying and reducing the costs, and making the characterization of the kinetic properties of the EOPA more reliable (Juliano et al., 1990). The peptide substrates with quenched fluorescence (qf) used have the radical Abz (ortho-aminobenzoic acid) at the amino terminus of the peptide, and the EDDnp [N-(2,4-dinitrophenyl)ethylenediamine] at the carboxyl terminus of the peptide. […]

[4] = tested on: neuronal precursor cells from embryonic stem cells (USP-1 lineage); test: Treatment of neuronal precursor cells differentiated from embryonic stem cells with EOPA inhibitor; format: cell-based; details: neuronal precursor cells treated with the inhibitor
Experimental: The undifferentiated embryonic stem cells (USP-1 lineage) were cultured in medium containing: DMEM, supplemented with 15% of bovine fetal serum, […] of penicillin/streptomycin and 2 mM of L-glutamine, 1% of non-essential amino acids, 10^−4 M of monothioglicerol, and LIF (Leukemia Inhibitory Factor), in a final concentration of 1,000 units/ml. All the undifferentiated stem cells culture was maintained over a primary culture of previously irradiated murine fibroblasts (Neo Mef2). The differentiation was done after the formation of the embryoid bodies, where 750 cells were maintained in 20 μl of the culture medium drops over a Petri dish, during four days at 37° C., under 5% carbonic gas (during this period the cells form the cellular aggregates known as embryoid bodies). […] After completing the differentiation of the stem cells, the differentiated cells were counted and photographed using a confocal microscopy. A population of cells differentiated into neurons was obtained following the protocol described above, and the influence of the inhibition of the EOPA catalytic activity during the differentiation and maturation process of these neurons was analyzed after the treatment of these cells with the inhibitor JA2.

Ki [3]	SMILES	effect of thiol agents on EOPA activity (kinetic assays) [1]	other results
–	O[C@H](CS)[C@H](O)CS (racemic) [dithiothreitol (DTT), dithiothreitol]	activated	–
–	O=C(O)c1cc[c]([Hg][Cl])cc1 [p-chloromercuribenzoate (PCMB), p-chloromercuribenzoate]	inhibited	–
~17 nM and 17 nM	C[C@H](NC(CCc1ccccc1)C(=O)O)C(=O)NC(C)(C)C(=O)N[C@@H](Cc1ccc(O)cc1)C(=O)Nc1ccc(C(=O)O)cc1 (stereo partly shown) [JA2]	–	Ki (neurolysin (NL)): > 200 nM; Ki [2]: 23 nM; differentiation of the cells [4]: abnormal differentiation of the cells; neurites formation [4]: inhibition of the neurites formation
–	O=C(O)CN(CCN(CC(=O)O)CC(=O)O)CC(=O)O [EDTA]	–	sensitivity of EOPA to metalloprotease-directed agents [3]: insensible
–	O=C(O)c1cc(SSc2ccc([N+](=O)[O-])c(C(=O)O)c2)ccc1[N+](=O)[O-] [5′-dithio-bis-(2-nitrobenzoic acid)]	inhibited	–
~17 nM	C[C@H](NC(=O)[C@H](C)NC(CCc1ccccc1)C(=O)O)C(=O)N[C@@H](Cc1ccc(O)cc1)C(=O)Nc1ccc(C(=O)O)cc1 (stereo partly shown) [cFP]	–	–
